Entries after “also recorded” stand apart in the source; their conditions may differ. Where two headings read alike, the source gives them in different places.
How the values were obtained:
human cathepsin S (CatS) = molecular target: T1, human cathepsin S (CatS) (Homo sapiens, UniProt P25774); experiment: Fluorometric inhibition assay, cathepsin S; type: biochemical
T1 construct: purchased Sigma Aldrich

[1] = molecular target: SARS-CoV-2 main protease (M^pro) (Severe acute respiratory syndrome coronavirus 2, UniProt P0DTD1); experiment: Fluorometric (FRET) inhibition assay, SARS-CoV-2 M^pro; type: biochemical; conditions: for activity against M^pro, in words: initial screen at 20 µM, cut-off 80% inhibition
rhodesain = rhodesain (Trypanosoma brucei rhodesiense, UniProt Q95PM0); experiment: Fluorometric inhibition assay, rhodesain; type: biochemical; conditions: for kinact: read-out: kinact, Rhodesain
[2] = Reactivity test of warhead probes with PhEtSH without base (NMR/LC-MS); type: physicochemical; conditions: non-basic conditions; for reactivity with PhEtSH (protonated thiol), in words: DMSO-d6, up to 240 min
Text: (§1) To investigate the reactivity between the different warheads towards the three classes of proteases (serine, threonine and cysteine proteases), their behavior in model systems under the same reaction conditions (solvent, nucleophile and base) using either NMR or LC-MS analysis was investigated. We used reactivity probes with a Boc-L-Leu-(warhead) sequence. Leucin was chosen as a P1 amino acid to minimize influences of the side chain and due to synthetic accessibility. 2-Phenylethanethiol was used as a model nucleophile to mimic the thiol moiety of cysteine proteases, and sodium ethoxide was used as a serine/threonine replacement. DMSO-d6 was used as solvent. Under these conditions, the nucleophile is deprotonated, simulating the activated serine or threonine in the catalytic triad of serine and threonine proteases, while ethanol as protonated alcohol species turned out to be unreactive in preliminary test reactions. The reactivity tests using 2-phenylethanthiol were carried out in the presence and absence of triethylamine as a base. This allowed for a reactivity comparison of the warheads towards protonated and deprotonated nucleophilic thiol species. Generating a deprotonated thiol species in the presence of triethylamine simulates the deprotonated cysteine in the catalytic dyad of cysteine proteases. Scheme 8 illustrates the reaction of the reactivity assay with both model nucleophiles and the vinyl sulfone moiety 109 as an example.
(§2) The reactivity tests of all Michael acceptors, 109, 110, 111 and 112, the α-ketobenzothiazole 115 and nitrile 117 were investigated using an NMR-based analysis method, while the β-lactam 108 reactivity was investigated via LC-MS, due to its lack of proton signals, which could be used for evaluation of the reactivity in the ^1H-NMR studies, and the irreversible reaction mechanism, which allowed the LC-MS analysis. […] Formation of the expected adducts with the nitrile 117 (PhEtSH/PhEtS^–/EtONa), the α-ketobenzothiazole 115 (PhEtSH/PhEtS^–) and the nitroalkene 111 (EtONa) could not be observed. This may have been due to the covalent reversible reaction mechanism of the nitrile and α-ketobenzothiazole and the overall difficult ionization of the specific compounds by an electron spray ionization mass spectrometer.
(§3) Method A (NMR): ^1H-NMR spectra were recorded for the respective warhead and nucleophile mixture, before the addition of the nucleophile (0 min) and after 5, 30, 60, 120 and 240 min reaction time. For quantification, the double bond-signals (doublet/doublet of doublets, around 7.4–6.7 ppm) of the Michael acceptors were integrated relative to 1,3-dioxolane as an internal standard. The acetal CH2 signal of the internal standard at 5.3 ppm was used as a reference.
(§4) The α-ketobenzothiazole 115 and nitrile 117 were similarly analyzed by ^13C-NMR. Therefore, the corresponding ^13C-leucin derivates were synthesized (Scheme 7). Quantifications of the reactions were carried out by using the integral of the carbonyl carbon atom signal at 195 ppm for the α-ketobenzothiazole and 120 ppm for the nitrile moiety. The reference signal of DMSO-d6 was set to 39.52 ppm.
(§5) Method B (LC-MS): The reactivity of the β-lactam test compound 108 with the nucleophiles was investigated using an LC-MS-based method. To quantify the conversion, the AUCs were determined at 254 nm. In Figure 3, the UV spectra of the test reaction of the β-lactam 108 with EtONa are shown exemplarily.
(§6) The β-lactam 108 (0.07 mmol, 1eq) was solved in DMSO-d6 (0.5 mL). The reaction was measured in time intervals before (0 min), 5, 30, 60, 120 and 240 mins after the addition of the corresponding nucleophile (PhEtSH/EtONa, 2 eq) in presence of Et3N (2 eq) or not. In case of PhEtSH as the nucleophile the reaction got quenched by pouring 10 µL of the reaction mixture into a solution of 25 mM TRIS (pH 7.00) and 27 mM maleimide in a 1:1 mixture of acetonitrile/H2O (990 µL). For the reaction with EtONa as the nucleophile, the reaction solution […]

[3] = Reactivity test of warhead probes with PhEtSH + Et3N (NMR/LC-MS); type: physicochemical; conditions: for maximum conversion with PhEtSH + Et3N: DMSO-d6, after 240 min; for reactivity with PhEtSH + Et3N (deprotonated thiol), in words: DMSO-d6, up to 240 min; for time to full conversion with PhEtSH + Et3N: DMSO-d6
Text: as §1, §2, §3, §4, §5, §6

[4] = Reactivity test of warhead probes with EtONa (NMR/LC-MS); type: physicochemical; conditions: for reactivity with EtONa, in words: DMSO-d6, up to 240 min; for time to full conversion with EtONa: DMSO-d6
Text: as §1, §2, §3, §4, §5, §6

proteasome β5-subunit = molecular target: T2, proteasome β5-subunit (Homo sapiens, UniProt P20618+P28074); experiment: Fluorometric inhibition assay, proteasome β5-subunit; type: biochemical
T2 construct: purchased Enzo Life sciences

[5] = molecular target: T3, urokinase-type plasminogen activator (uPA) (Homo sapiens, UniProt P00749); experiment: Fluorometric inhibition assay, uPA; type: biochemical
T3 construct: purchased Sigma Aldrich

[6] = Table S1; a) calculated from IC50 with Cheng–Prusoff, irreversible inhibitors from kobs fits, n.a. = not active at 20 µM, * unstable towards DTT, read-out: Ki, CatS
[7] = Table S1; a) calculated from IC50 with Cheng–Prusoff, irreversible inhibitors from kobs fits, n.a. = not active at 20 µM, read-out: Ki, Rhodesain
[8] = initial screen at 20 µM, cut-off 80% inhibition

T1 sequence (P25774 115-331): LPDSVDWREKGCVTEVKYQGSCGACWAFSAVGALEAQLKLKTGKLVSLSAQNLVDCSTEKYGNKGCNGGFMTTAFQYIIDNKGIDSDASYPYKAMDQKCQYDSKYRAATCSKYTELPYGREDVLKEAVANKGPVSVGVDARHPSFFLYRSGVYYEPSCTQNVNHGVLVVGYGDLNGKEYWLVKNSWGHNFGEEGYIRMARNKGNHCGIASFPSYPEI
rhodesain, sequence (Q95PM0 entry or part of it): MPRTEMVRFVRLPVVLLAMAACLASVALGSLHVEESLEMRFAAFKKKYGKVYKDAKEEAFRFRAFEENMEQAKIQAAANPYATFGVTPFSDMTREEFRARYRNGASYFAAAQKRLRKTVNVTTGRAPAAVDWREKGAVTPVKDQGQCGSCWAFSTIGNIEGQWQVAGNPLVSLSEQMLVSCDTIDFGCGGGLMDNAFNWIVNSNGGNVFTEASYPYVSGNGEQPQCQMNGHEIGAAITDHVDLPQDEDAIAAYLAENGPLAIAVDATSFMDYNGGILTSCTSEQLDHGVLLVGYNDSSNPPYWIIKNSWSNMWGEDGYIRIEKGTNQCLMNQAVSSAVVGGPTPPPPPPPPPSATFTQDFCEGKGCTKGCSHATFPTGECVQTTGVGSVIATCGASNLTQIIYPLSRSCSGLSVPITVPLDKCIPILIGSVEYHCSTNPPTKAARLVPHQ

COc1cccc2[nH]c(C(=O)N[C@@H](CC(C)C)C(=O)N[C@H](/C=C/S(=O)(=O)c3ccccc3)C[C@@H]3CCNC3=O)cc12 [compound 93]
Ki (human cathepsin S (CatS); [6]): 330 ± 65 nM | kinact (human cathepsin S (CatS); Table S1, irreversible inhibitors, read-out: kinact, CatS): 0.0087 ± 0.0001 s⁻¹ | Ki (human cathepsin S (CatS); calculated from Ki, –log10(Ki/M), read-out: pKi, Cathepsin S inhibition (converted)): 398 nM | Ki [1]: 3530 ± 1110 nM | activity against M^pro, in words [1]: displayed inhibitory activity | kinact ([1]; read-out: kinact, MPro): 0.0137 ± 0.0061 s⁻¹ | Ki (rhodesain; [7]): 2000 ± 604 nM | kinact (rhodesain; Table S1, irreversible inhibitors): 0.029 ± 0.008 s⁻¹

CC(C)CC(/C=C(\F)S(=O)(=O)c1ccccc1)NC(=O)OC(C)(C)C (stereo not shown) [compound 110]
reactivity with PhEtSH (protonated thiol), in words [2]: conversion was not observed; also recorded: missing reactivity | maximum conversion with PhEtSH + Et3N [3]: 86% | reactivity with PhEtSH + Et3N (deprotonated thiol), in words [3]: high reactivity | reactivity with EtONa, in words [4]: No conversion

CCOC(=O)/C=C/C(=O)C(CC(C)C)NC(=O)OC(C)(C)C (stereo not shown) [compound 112]
conversion with PhEtSH ([2]; DMSO-d6, after 240 min): 92% | reactivity with PhEtSH (protonated thiol), in words [2]: did indeed react; also recorded: high reactivity | time to full conversion with PhEtSH + Et3N [3]: 5 min | reactivity with PhEtSH + Et3N (deprotonated thiol), in words [3]: high reactivity | time to full conversion with EtONa [4]: 5 min | reactivity with EtONa, in words [4]: unspecific conversion

CC(C)C[C@H](NC(=O)OC(C)(C)C)C(=O)N[C@H]1CN(c2ccccc2)C1=O [compound 108]
reactivity with PhEtSH (protonated thiol), in words [2]: conversion was not observed | reactivity with PhEtSH + Et3N (deprotonated thiol), in words [3]: Every warhead except the β-lactam 108 and the nitrile 117 reacted | time to full conversion with EtONa [4]: 60 min | reactivity with EtONa, in words [4]: complete conversion; also recorded: strong reactivity

COC(=O)[C@H](C[C@@H]1CCNC1=O)NC(=O)OC(C)(C)C [compound 85]
inhibition of the proteasome β5-subunit, in words (proteasome β5-subunit; [8]): None

CC(C)CC(/C=C/[N+](=O)[O-])NC(=O)OC(C)(C)C (stereo not shown) [compound 111]
reactivity with PhEtSH (protonated thiol), in words [2]: conversion was not observed | maximum conversion with PhEtSH + Et3N [3]: 82% | reactivity with PhEtSH + Et3N (deprotonated thiol), in words [3]: high reactivity | conversion with EtONa ([4]; DMSO-d6, after 240 min): 84%

CC(=O)NCC(=O)NC(C(=O)N[C@@H](C)C(=O)N[C@@H](CCCNC(=N)N)C(=O)c1nc2ccccc2s1)[C@H](C)O (stereo partly shown) [compound 103]
Ki ([5]; Table S1; a) calculated from IC50 with Cheng–Prusoff, n.a. = not active (<80% inhibition at 20 µM), read-out: Ki, uPA): 141 ± 27 nM | Ki ([5]; calculated from Ki, –log10(Ki/M), read-out: pKi, uPA inhibition (converted)): 126 nM | activity against uPA, in words [5, 8]: active; also recorded: displayed inhibitory activity | inhibition of the proteasome β5-subunit, in words (proteasome β5-subunit; [8]): not inhibited | activity against CatS, in words (human cathepsin S (CatS); [8]): not inhibited; also recorded: not active at 20 µM | activity against M^pro, in words [1]: not inhibited | activity against rhodesain, in words (rhodesain; [8]): not inhibited; also recorded: inactive

CC(C)C[C@H](NC(=O)OC(C)(C)C)[13C](N)=O [compound 116]
time until equilibrium was reached with PhEtSH ([2]; DMSO-d6): 5 min

CC(C)C[C@@H]([13C]#N)NC(=O)OC(C)(C)C [compound 117]
conversion with PhEtSH ([2]; DMSO-d6, time not stated): 7% | reactivity with PhEtSH (protonated thiol), in words [2]: did indeed react | reactivity with PhEtSH + Et3N (deprotonated thiol), in words [3]: Every warhead except the β-lactam 108 and the nitrile 117 reacted; also recorded: no reaction | conversion with EtONa ([4]; DMSO-d6, at 5 min): 10%

CC(C)CC(/C=C/S(=O)(=O)c1ccccc1)NC(=O)OC(C)(C)C (stereo not shown) [compound 109]
reactivity with PhEtSH (protonated thiol), in words [2]: conversion was not observed; also recorded: missing reactivity | time to full conversion with PhEtSH + Et3N [3]: 60 min | reactivity with PhEtSH + Et3N (deprotonated thiol), in words [3]: high reactivity | conversion with EtONa ([4]; DMSO-d6, after 240 min): 70%

CC(C)CC(NC(=O)C(Cc1ccccc1)NC(=O)c1cnccn1)C(=O)c1nc2ccccc2s1 (stereo not shown) [compound 62]
inhibition of the proteasome β5-subunit, in words (proteasome β5-subunit): None and no inhibition

CC(C)CC(C#N)NC(=O)C(Cc1ccccc1)NC(=O)c1cnccn1 (stereo not shown) [compound 74]
inhibition of the proteasome β5-subunit, in words (proteasome β5-subunit): None and no inhibition and missing inhibition | Ki (human cathepsin S (CatS); Ki, CatS): 238 ± 23 nM | Ki (rhodesain; Ki, Rhodesain): 560 ± 267 nM

COc1cccc2[nH]c(C(=O)N[C@@H](CC(C)C)C(=O)N[C@H](C#N)C[C@@H]3CCNC3=O)cc12 [compound 84]
Ki (human cathepsin S (CatS); [6]): 104 ± 9 nM | activity against M^pro, in words [1]: displayed inhibitory activity | Ki (rhodesain; [7]): 42 ± 5 nM

COc1cccc2[nH]c(C(=O)N[C@@H](CC(C)C)C(=O)N[C@H](/C=C(\F)S(=O)(=O)c3ccccc3)C[C@@H]3CCNC3=O)cc12 [compound 94]
Ki (human cathepsin S (CatS); [6]): 1350 ± 90 nM | Ki [1]: 517 ± 33 nM | activity against M^pro, in words [1]: displayed inhibitory activity | Ki (rhodesain; [7]): 217 ± 31 nM

CC(C)CC(NC(=O)OC(C)(C)C)[13C](=O)c1nc2ccccc2s1 (stereo not shown) [compound 115]
conversion with PhEtSH ([2]; DMSO-d6, after 240 min): 18% | reactivity with PhEtSH (protonated thiol), in words [2]: did indeed react | conversion with PhEtSH + Et3N ([3]; DMSO-d6, time not stated): around 30% | reactivity with PhEtSH + Et3N (deprotonated thiol), in words [3]: strong reactivity | maximum conversion with EtONa ([4]; DMSO-d6, maximum reached after 60 min): 37% | reactivity with EtONa, in words [4]: strong reactivity

CCOC(=O)/C=C/C(=O)[C@H](CC(C)C)NC(=O)[C@H](Cc1ccccc1)NC(=O)c1cnccn1 [compound 68]
inhibition of the proteasome β5-subunit, in words (proteasome β5-subunit): None | activity against CatS, in words (human cathepsin S (CatS)): essentially inactive | Ki (rhodesain; Ki, Rhodesain): 9 ± 1 nM | kinact (rhodesain): 0.006 ± 0.001 s⁻¹

CC(C)C[C@@H](/C=C(\F)S(=O)(=O)c1ccccc1)NC(=O)[C@H](Cc1ccccc1)NC(=O)c1cnccn1 [compound 55]
inhibition of the proteasome β5-subunit, in words (proteasome β5-subunit): None | Ki (human cathepsin S (CatS); Ki, CatS): 934 ± 138 nM | Ki (human cathepsin S (CatS); pKi, Cathepsin S inhibition): 1000 nM | Ki (rhodesain; Ki, Rhodesain): 462 ± 39 nM

CC(C)C[C@@H](C=C[N+](=O)[O-])NC(=O)[C@H](Cc1ccccc1)NC(=O)c1cnccn1 [compound 59]
inhibition of the proteasome β5-subunit, in words (proteasome β5-subunit): None | Ki (human cathepsin S (CatS); Ki, CatS): 619 ± 54 nM | Ki (rhodesain; Ki, Rhodesain): 2 ± 5 nM

CC(C)C[C@H](NC(=O)[C@H](Cc1ccccc1)NC(=O)c1cnccn1)C(=O)N[C@H]1CN(c2ccccc2)C1=O [compound 72]
inhibition of the proteasome β5-subunit, in words (proteasome β5-subunit): None and did not inhibit

COc1cccc2[nH]c(C(=O)N[C@@H](CC(C)C)C(=O)N[C@H](/C=C/[N+](=O)[O-])C[C@@H]3CCNC3=O)cc12 [compound 88]
Ki (human cathepsin S (CatS); [6]): 388 ± 277 nM | Ki [1]: 2200 ± 184 nM | activity against M^pro, in words [1]: displayed inhibitory activity | Ki (rhodesain; calculated from Ki, –log10(Ki/M), read-out: pKi, Rhodesain inhibition (converted)): 2 nM

From PMC10138721, “Investigation of the Compatibility between Warheads and Peptidomimetic Sequences of Protease Inhibitors—A Comprehensive Reactivity and Selectivity Study” (International Journal of Molecular Sciences, 2023)
